Results reported in patent US20240277663A1, “PHARMACEUTICAL KITS AND USES THEREOF FOR TREATING COLORECTAL CANCER” (priority 2023, published 2024).
pIC50: −log10 of the molar value. Read-outs that look alike come from different tables or passages of the source. Marks after values point to notes of the source that are not given here.

Tests used:
[1] = system: CT26 allograft tumor (MSS subtype colorectal carcinoma); test: CT26 subcutaneous tumor model, HDAC inhibitors with or without RMP1-14; details: for response in the mice on the growth of tumor (individual tumor volumes): compared to vehicle group or to other combinations, ABT-301 100 mg/kg, vorinostat 100 mg/kg, citarinostat 50 mg/kg, RMP1-14 200 μg
Protocol: MC-38 cells (purchased from Kerafast, Inc.), derived from C57BL/6 murine colon adenocarcinoma cells typically classified as microsatellite instable, were maintained in DMEM with 10% fetal bovine serum, 100 U/mL penicillin, 100 μg/mL streptomycin, 10 mM HEPES, and 1× nonessential amino acid. All the cells were maintained in a humidified atmosphere having 5% CO2 at 37° C.
(§1) Female BALB/c mice (BALB/cByJNarl) aged 5-7 weeks (for CT26 subcutaneous tumor model), and female C57BL/6 mice (C57BL/6JNarl) aged 5-7 weeks (for MC-38 subcutaneous tumor model), were housed in standard cages within the animal facility at the Industrial Technology Research Institute (ITRI). A one-week acclimatization period preceded the commencement of the study, with the health of the mice monitored daily. Animals were kept in rooms at 22-26° C. with 40-70% humidity, positive pressure, 60% air recirculation, ventilation rate 15-20 changes per hour, and a controlled light-dark cycle (12-12 hours).
(§2) CT26 cells (2×10^5) were suspended in 100 μl of PBS and subcutaneously inoculated into the right flank of female BALB/c mice. Tumors were measured with calipers, and tumor size was calculated as follows: tumor volume (V)=(L×S^2)/2 (L, longest diameter, mm; S, shortest diameter, mm). Tumor size and body weight of mice were monitored and recorded twice to thrice per week. The antitumor activities of treatments were expressed as percentages of tumor growth inhibition (% TGI), as calculated using the following formula: [1−(final tumor volume−initial tumor volume for treated group)/(final tumor volume−initial tumor volume for vehicle group)]×100. Body weight of each mouse was also compared to that on the first day of treatment (Day 0) and expressed as a percentage of Day 0 value.
When mean tumor volume reached about 80-100 mm^3, treatments were initiated and the day of treatment initiation was designated as Day 0. […] Treatments were administered for indicated period (31 days) or until humane endpoints. Eight or nine mice were used in each group. […] RMP1-14 was prepared with PBS.

[2] = system: CT26 allograft tumor (MSS subtype colorectal carcinoma); test: CT26 subcutaneous tumor model, multiple doses of ABT-301 with or without avelumab; format: in vivo, mouse
Protocol: Treatments were administered for indicated period (24 days) or until humane endpoints. Ten mice were used in each group. […] Avelumab was prepared with PBS.

[3] = system: CT26 allograft tumor (MSS subtype colorectal carcinoma)
Protocol: As described herein, tumor responses were evaluated using Response Evaluation Criteria in Solid Tumors (RECIST) criteria. Complete response (CR) was defined as complete disappearance of measurable or evaluable tumor lesions; partial response (PR) was defined as reduction of the size of measurable tumor lesions by at least 30% (≥30%) compared to the original tumor size; stable disease (SD) was defined as reduction of the size of measurable tumor lesions by less than 30% (<30%) or enlargement of the size of measurable tumor lesions by less than 20% (<20%) compared to the original tumor size; and progressive disease (PD) was defined as growth of the tumor by more than 30% (>30%) in the tumor volume compared to the original tumor size or development of new lesions.
All the cells were maintained in a humidified atmosphere having 5% CO2 at 37° C.
as §1, §2
The administration of treatments commenced five days following the inoculation of CT26 cells, with the day of treatment initiation designated as Day 0. When mean tumor volume reached 50-100 mm^3, the mice were assigned into four groups through S-type grouping according to tumor size. […] Eight mice were used in each group. Treatments were administered for 43 days. […] Avelumab was prepared with PBS.

[4] = system: MC-38 allograft tumor (MSI-H subtype colorectal carcinoma)
Protocol: As described herein, tumor responses were evaluated using Response Evaluation Criteria in Solid Tumors (RECIST) criteria. Complete response (CR) was defined as complete disappearance of measurable or evaluable tumor lesions; partial response (PR) was defined as reduction of the size of measurable tumor lesions by at least 30% (≥30%) compared to the original tumor size; stable disease (SD) was defined as reduction of the size of measurable tumor lesions by less than 30% (<30%) or enlargement of the size of measurable tumor lesions by less than 20% (<20%) compared to the original tumor size; and progressive disease (PD) was defined as growth of the tumor by more than 30% (>30%) in the tumor volume compared to the original tumor size or development of new lesions. […]
Female BALB/c mice (BALB/cByJNarl) aged 5-7 weeks (for CT26 subcutaneous tumor model), and female C57BL/6 mice (C57BL/6JNarl) aged 5-7 weeks (for MC-38 subcutaneous tumor model), were housed in standard cages within the animal facility at the Industrial Technology Research Institute (ITRI). A one-week acclimatization period preceded the commencement of the study, with the health of the mice monitored daily. […]
MC-38 cells (2×10^5) were suspended in 100 μl of PBS and subcutaneously inoculated into the right flank of female C57BL/6 mice. Tumors were measured with calipers, and tumor size was calculated as follows: tumor volume (V)=(LxS^2)/2 (L, longest diameter, mm; S, shortest diameter, mm). Tumor size and body weight of mice were monitored and recorded twice to thrice per week. The antitumor activities of treatments were expressed as percentages of tumor growth inhibition (% TGI), as calculated using the following formula: [1−(final tumor volume−initial tumor volume for treated group)/(final tumor volume−initial tumor volume for vehicle group)]×100. Body weight of each mouse was also compared to that on the first day of treatment (Day 0) and expressed as a percentage of Day 0 value. […]

colorectal cancer tumor = test: Another batch: HDAC inhibitors (PCI-34051, elevenostat, ABT-301) with or without RMP1-14 in tumor-bearing mice; format: in vivo, mouse; details: another batch of experiments, data not shown; compared to vehicle group or to other combinations
HDAC7 = target: T1, HDAC7 (Homo sapiens, UniProt Q8WUI4); test: HDAC enzymatic activity assay (fluorogenic, Reaction Biology)
T1 sequence (Q8WUI4 1-952): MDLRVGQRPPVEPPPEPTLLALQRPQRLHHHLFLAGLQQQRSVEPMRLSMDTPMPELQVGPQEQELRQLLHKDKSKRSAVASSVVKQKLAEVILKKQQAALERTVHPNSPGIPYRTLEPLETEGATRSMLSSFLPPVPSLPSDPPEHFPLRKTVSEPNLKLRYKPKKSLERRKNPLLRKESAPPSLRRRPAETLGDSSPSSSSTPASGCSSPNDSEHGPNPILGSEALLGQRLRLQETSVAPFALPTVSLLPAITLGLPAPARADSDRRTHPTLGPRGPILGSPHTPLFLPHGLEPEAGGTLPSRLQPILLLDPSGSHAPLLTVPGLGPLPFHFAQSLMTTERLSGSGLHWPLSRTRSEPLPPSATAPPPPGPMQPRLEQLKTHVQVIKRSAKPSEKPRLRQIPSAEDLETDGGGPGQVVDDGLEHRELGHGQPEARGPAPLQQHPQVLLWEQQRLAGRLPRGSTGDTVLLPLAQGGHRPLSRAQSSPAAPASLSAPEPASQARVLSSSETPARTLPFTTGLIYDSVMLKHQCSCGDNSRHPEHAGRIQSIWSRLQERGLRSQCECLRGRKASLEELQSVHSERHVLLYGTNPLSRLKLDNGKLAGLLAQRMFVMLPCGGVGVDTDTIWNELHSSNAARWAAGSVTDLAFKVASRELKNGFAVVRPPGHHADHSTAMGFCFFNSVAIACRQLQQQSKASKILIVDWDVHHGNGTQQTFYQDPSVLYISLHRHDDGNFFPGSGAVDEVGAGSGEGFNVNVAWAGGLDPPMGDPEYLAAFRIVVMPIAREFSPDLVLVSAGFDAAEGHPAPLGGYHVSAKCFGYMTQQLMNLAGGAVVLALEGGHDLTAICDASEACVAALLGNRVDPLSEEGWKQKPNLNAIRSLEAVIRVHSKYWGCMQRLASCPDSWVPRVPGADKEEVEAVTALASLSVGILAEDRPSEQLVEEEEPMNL

HDAC9 = HDAC9 (Homo sapiens, UniProt Q9UKV0); test: as above
HDAC10 = target: T2, HDAC10 (Homo sapiens, UniProt Q969S8); test: as above
T2 sequence (Q969S8 1-669): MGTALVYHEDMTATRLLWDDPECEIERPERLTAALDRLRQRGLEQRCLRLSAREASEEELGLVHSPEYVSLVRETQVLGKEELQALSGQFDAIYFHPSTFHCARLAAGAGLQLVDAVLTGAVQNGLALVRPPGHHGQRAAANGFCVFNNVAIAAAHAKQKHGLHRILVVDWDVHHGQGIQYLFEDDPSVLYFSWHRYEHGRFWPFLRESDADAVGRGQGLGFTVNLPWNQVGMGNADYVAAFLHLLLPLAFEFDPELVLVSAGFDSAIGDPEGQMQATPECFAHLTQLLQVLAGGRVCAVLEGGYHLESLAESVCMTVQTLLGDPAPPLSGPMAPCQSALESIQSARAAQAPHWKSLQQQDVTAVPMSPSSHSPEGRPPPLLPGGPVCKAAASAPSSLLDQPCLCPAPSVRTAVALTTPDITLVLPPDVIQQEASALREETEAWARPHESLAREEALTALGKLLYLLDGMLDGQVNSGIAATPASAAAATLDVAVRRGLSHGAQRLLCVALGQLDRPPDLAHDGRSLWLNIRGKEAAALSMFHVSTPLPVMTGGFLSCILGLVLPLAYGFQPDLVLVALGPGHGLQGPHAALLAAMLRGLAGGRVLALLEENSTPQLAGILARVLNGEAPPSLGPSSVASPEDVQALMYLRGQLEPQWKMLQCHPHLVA

HDAC11 = target: T3, HDAC11 (Homo sapiens, UniProt Q96DB2); test: as above
T3 sequence (Q96DB2 1-347): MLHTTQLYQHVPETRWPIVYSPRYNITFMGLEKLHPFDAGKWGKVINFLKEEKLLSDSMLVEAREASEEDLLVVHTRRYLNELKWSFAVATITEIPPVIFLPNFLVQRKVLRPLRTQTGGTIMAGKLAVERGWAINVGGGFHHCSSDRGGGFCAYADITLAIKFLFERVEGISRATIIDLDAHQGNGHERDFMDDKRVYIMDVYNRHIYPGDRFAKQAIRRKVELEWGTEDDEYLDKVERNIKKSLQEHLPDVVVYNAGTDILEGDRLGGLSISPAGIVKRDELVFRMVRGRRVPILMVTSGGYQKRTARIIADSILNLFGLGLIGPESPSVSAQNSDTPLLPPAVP

[5] = Day 28 after treatments, ABT-301 100 mg/kg PO, avelumab 100 μg IP, means ± SEM

HDAC9, sequence (Q9UKV0 whole entry): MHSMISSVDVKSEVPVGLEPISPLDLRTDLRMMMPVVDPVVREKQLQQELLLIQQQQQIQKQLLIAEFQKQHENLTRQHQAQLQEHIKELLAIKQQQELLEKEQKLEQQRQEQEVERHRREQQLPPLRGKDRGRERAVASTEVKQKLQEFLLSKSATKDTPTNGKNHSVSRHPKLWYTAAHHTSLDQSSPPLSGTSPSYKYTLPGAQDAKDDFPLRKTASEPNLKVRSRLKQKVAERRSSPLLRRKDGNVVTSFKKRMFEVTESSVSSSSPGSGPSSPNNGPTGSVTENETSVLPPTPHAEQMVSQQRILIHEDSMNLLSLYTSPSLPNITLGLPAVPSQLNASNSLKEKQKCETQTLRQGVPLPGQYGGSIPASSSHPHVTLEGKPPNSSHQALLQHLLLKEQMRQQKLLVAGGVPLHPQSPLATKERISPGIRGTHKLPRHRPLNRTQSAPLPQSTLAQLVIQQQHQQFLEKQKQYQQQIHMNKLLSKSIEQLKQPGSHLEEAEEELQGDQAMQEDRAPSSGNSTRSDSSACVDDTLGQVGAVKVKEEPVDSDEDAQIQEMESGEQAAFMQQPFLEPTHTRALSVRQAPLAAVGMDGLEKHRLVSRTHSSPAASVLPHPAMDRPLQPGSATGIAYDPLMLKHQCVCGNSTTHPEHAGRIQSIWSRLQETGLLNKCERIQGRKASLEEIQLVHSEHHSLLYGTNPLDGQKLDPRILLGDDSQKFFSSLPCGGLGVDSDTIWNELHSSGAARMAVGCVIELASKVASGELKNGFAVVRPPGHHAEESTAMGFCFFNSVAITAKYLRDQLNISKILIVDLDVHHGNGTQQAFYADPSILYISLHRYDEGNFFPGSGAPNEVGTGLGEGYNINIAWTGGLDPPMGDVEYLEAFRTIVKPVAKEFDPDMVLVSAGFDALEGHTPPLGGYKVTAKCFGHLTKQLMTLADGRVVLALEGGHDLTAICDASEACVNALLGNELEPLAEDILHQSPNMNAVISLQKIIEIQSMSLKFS

Molecule: O=C(CCCCCCC(=O)Nc1ccccc1)NO [Vorinostat]
- response in the mice on the growth of tumor (individual tumor volumes) [1]: did not elicit a visible response

Molecule: O=C(CCCCCCNC(=O)c1cnc(N(c2ccccc2)c2ccccc2Cl)nc1)NO [Citarinostat]
- TGI (tumor growth inhibition) ([1]; Day 22 after treatments, ABT-301 100 mg/kg PO, vorinostat 100 mg/kg PO, citarinostat 50 mg/kg IP, RMP1-14 200 μg IP): 38%
- response in the mice on the growth of tumor (individual tumor volumes) [1]: did not elicit a visible response

Molecule: Avelumab: an anti-PD-L1 antibody [reference compound]
- Tumor size ([2]; Day 24 after treatments, avelumab 200 μg alone, means ± SEM): 31.79 ± 26.66** mm^3
- number of mice exhibiting complete response (CR) ([2]; avelumab 200 μg IP BIW alone, out of 10 mice): 7
- complete response (CR) rate ([3]; CT26-bearing BALB/c mice, n=8/group, ABT-301 100 mg/kg PO QD, avelumab 100 μg IP BIW): 1/8
- Median survival ([3]; CT26 allograft tumor mice, over the entire study, ABT-301 100 mg/kg PO QD, avelumab 100 μg IP BIW): 28 days
- TGI (tumor growth inhibition) [3, 5]: 58.51 ± 14.14%
- Tumor size [3, 5]: 559.63 ± 156.94 mm^3
- Tumor size ([4]; Day 25 after treatments, ABT-301 100 mg/kg PO, avelumab 200 μg IP, RMP1-14 200 μg IP, means ± SEM): 529.91 ± 329.24 mm^3
- complete response (CR) rate ([4]; MC-38-bearing C57BL/6 mice, n=8/group, ABT-301 100 mg/kg PO QD, avelumab 200 μg IP BIW, RMP1-14 200 μg IP BIW): 4/8
- Median survival ([4]; MC-38 allograft tumor mice, over the entire study, ABT-301 100 mg/kg PO QD, avelumab or RMP1-14 200 μg IP BIW): 68 days

Molecule: COc1ccccc1NC(=O)NCc1ccc(C(=O)NO)cc1 [elevenostat]
- response in the mice on the growth of tumor (colorectal cancer tumor): did not elicit a visible response

Molecule: Nc1cc(F)ccc1NC(=O)c1ccc(CNC(=O)/C=C/c2cccnc2)cc1 [Tucidinostat, reference compound]
- pIC50 (HDAC7): < 5.52
- pIC50 (HDAC9): < 5.52
- pIC50 (HDAC10): < 5.52
- pIC50 (HDAC11): < 5.52

Molecule: COc1ccc(Cn2ccc3ccc(C(=O)NO)cc32)cc1 [PCI-34051]
- response in the mice on the growth of tumor (colorectal cancer tumor): did not elicit a visible response
